The source of these data is patent US20130330412A1, “SMART POLYMERIC NANOPARTICLES WHICH OVERCOME MULTIDRUG RESISTANCE TO CANCER THERAPEUTICS AND TREATMENT-RELATED SYSTEMIC TOXICITY” (THE JOHNS HOPKINS UNIVERSITY, priority 2010, published 2013).

The test system of series [1] is C57BL/6 wild-type mice. Put plainly: Glutathione and glutathione peroxidase (GPx) in mouse heart lysates. The class given is in vivo. Here is the method:
To evaluate the degree of oxidative stress in treated mice, levels of the antioxidants glutathione and glutathione peroxidase (GPx) were evaluated by western blot and ELISA, respectively, in mouse heart lysates.

The conditions of series [2]: cited from earlier work.
Series [3] concerns C57BL/6 wild-type mice. The series is described as follows: Hemoglobin and leukocyte counts in cardiotoxicity study (FIG. 16d). The series is classed as in vivo. The settings on record: 9 mg/kg DOX equivalent i.v. once weekly for 4 weeks.
Source text: C57BL6/J mice received an equivalent weekly cumulative dose of free doxorubicin, commercially available liposomal formulation of doxorubicin (Doxil), NanoDox, NanoDoxCurc, or vehicle only for 4 weeks. One week after the last dose, various cardiac parameters were examined by echocardiogram followed by collection of blood by cardiac puncture. […] (d) Hemoglobin and leukocyte counts from blood samples from each treatment arm.
Blood samples were collected from experimental animals by cardiac puncture and hearts were collected for histological and molecular studies.
Series [4] deals with BxPC3. Put plainly: In vitro cell viability (MTT) assay with gemcitabine, BxPC3 (FIG. 9). The series is classed as cell-based, human. The settings on record: BxPC3, 96 hours. Here is the method:
FIG. 9 illustrates in vitro cell viability (MTT assay) performed using the water-soluble drug gemcitabine conjugated to the acrylic acid (AA) surface reactive functional group of polymeric nanoparticle. Unlike the poorly water drugs that are encapsulated within the nanoparticle, water soluble drugs like gemcitabine can be conjugated to the nanoparticle surface, rendering this compound amenable to oral delivery. Human pancreatic cancer cell line BxPC3 is incubated with increasing dosages of either free gemcitabine (black bar), nano-gemcitabine (white bar), void polymer (grey bar), or PBS solvent (patterned bar). UT=untreated. […] All assays were performed in triplicate and means and standard deviations are plotted.
Gemcitabine is a water soluble compound, and thus differs from the poorly water soluble drugs discussed above that are encapsulated within the hydrophobic core of the polymeric nanoparticles. Herein, we describe the chemical conjugation of gemcitabine, as one illustrative example of water soluble drugs, to the hydrophilic surface of the polymeric nanoparticles. Such conjugation is expected to render gemcitabine amenable to oral delivery, utilizing the oral bioavailability properties of the said polymeric nanoparticles used as a carrier. 10 mg of NMA622 polymeric nanoparticles were dispersed in 10 ml of water by vortexing. […]

Series [5] is described as follows: Solubilization of poorly water soluble drugs in water (FIG. 2). The series is classed as physicochemical. The settings on record: visual.
Series [6] can be described thus: Blood levels of rapamycin 2 hours after oral delivery (FIG. 10). The series is classed as in vivo, C57/B6 mice. The settings on record: 15 mg/kg rapamycin equivalent, 2 hours post delivery, HPLC. From the text: FIG. 10 illustrates blood levels of rapamycin following oral delivery of polymeric nanoparticles. Rapamycin was encapsulated in nanoparticles comprised of increasing order of acrylic acid (AA) percentage in the co-polymeric composition. The nanoparticles were either administered as is, or after surface PEGylation. Compared are: Control A (rapamycin suspended in water); rapamycin nanoparticle comprised of NIPAAM:VP:AA in a ratio of 60:30:10 (designated as NVA631); rapamycin nanoparticle comprised of NIPAAM:VP:AA in a ratio of 60:20:20 (designated as NVA622); rapamycin nanoparticle comprised of NIPAAM:VP:AA in a ratio of 60:10:30 (designated as NVA613); and rapamycin nanoparticle comprised of NIPAAM:MMA:AA in a ratio of 60:20:20 (designated as NMA622). The corresponding PEGylated nanoparticles (PEG-NVA-631, PEG-NVA-622, PEG-NVA-613, and PEG-NMA-622) encapsulating rapamycin are designated as shaded bars. […] Blood levels are measured by HPLC from samples obtained at 2 hours post oral delivery.
Rapamycin is a poorly water soluble drug that has low oral bioavailability. […] At 2 hours post oral administration, the mice were bled and rapamycin concentrations in the blood were determined by high performance liquid chromatography (HPLC). […]

Consider `COc1cccc2c1C(=O)c1c(O)c3c(c(O)c1C2=O)C[C@@](O)(C(=O)CO)C[C@@H]3O[C@H]1C[C@H](N)[C@H](O)[C@H](C)O1` [DOX, doxorubicin], for which, in series [1], the “glutathione level (western blot)” value was “marked decrease” and the “glutathione peroxidase (GPx) level (ELISA)” value is “marked decrease”. For the same molecule, the “patients developing congestive heart failure (CHF)” value in series [2] (cumulative dose of 550 mg/m2) is 26%. Also, in series [2] (pediatric ALL patients), the “frequency of CHF in pediatric acute lymphoblastic leukemia (ALL) patients” value is given as no more than 57%. In series [3], the “Hemoglobin and leukocyte counts” value is “reduced”. Moreover, the “Hemoglobin (Hb) level, average” value in series [3] (control 12.5 g/dL) came to 7.5 g/dL.
Consider `Nc1ccn([C@@H]2O[C@H](CO)[C@@H](O)C2(F)F)c(=O)n1` [free gemcitabine, gemcitabine], for which the “activity in cell viability assay” value in series [4] is “comparable activity”.
For `CC(=O)O[C@H]1C(=O)[C@@]2(C)[C@H]([C@H](OC(=O)c3ccccc3)[C@]3(O)C[C@H](OC(=O)[C@H](O)[C@@H](NC(=O)c4ccccc4)c4ccccc4)C(C)=C1C3(C)C)[C@]1(OC(C)=O)CO[C@@H]1C[C@@H]2O` [free paclitaxel, paclitaxel], the “solubility in water (turbidity / transparency of solution)” value in series [5] is “essentially insoluble in water”.
As for `CO[C@H]1C[C@@H]2CC[C@@H](C)[C@@](O)(O2)C(=O)C(=O)N2CCCC[C@H]2C(=O)O[C@H]([C@H](C)C[C@@H]2CC[C@@H](O)[C@H](OC)C2)CC(=O)[C@H](C)/C=C(\C)[C@@H](O)[C@@H](OC)C(=O)[C@H](C)C[C@H](C)/C=C/C=C/C=C/1C` [free rapamycin, rapamycin], in series [6], the “blood levels of rapamycin” value was “essentially undetectable”. Moreover, the “solubility in water (turbidity / transparency of solution)” value in series [5] is “essentially insoluble in water”.
For `CO[C@H]1/C=C/O[C@@]2(C)Oc3c(C)c(O)c4c(O)c(c(/C=N/N5CCN(C)CC5)c(O)c4c3C2=O)NC(=O)/C(C)=C\C=C\[C@H](C)[C@H](O)[C@@H](C)[C@@H](O)[C@@H](C)[C@H](OC(C)=O)[C@@H]1C` [free rifampicin, rifampicin], in series [5], the “solubility in water (turbidity / transparency of solution)” value is “essentially insoluble in water”.
